Consider four compounds from ChEMBL document CHEMBL1139415, “Highly functionalized 7-azaindoles as selective PPAR gamma modulators” (Bioorg Med Chem Lett, 2008).

pEC50, pIC50: −log10 of the molar value. Activity calls are given as the source filed them. No cut-off for these calls is given here.

One data set concerns the target T1, Peroxisome proliferator-activated receptor alpha (Mus musculus) (UniProt P23204).
T1 sequence (whole entry): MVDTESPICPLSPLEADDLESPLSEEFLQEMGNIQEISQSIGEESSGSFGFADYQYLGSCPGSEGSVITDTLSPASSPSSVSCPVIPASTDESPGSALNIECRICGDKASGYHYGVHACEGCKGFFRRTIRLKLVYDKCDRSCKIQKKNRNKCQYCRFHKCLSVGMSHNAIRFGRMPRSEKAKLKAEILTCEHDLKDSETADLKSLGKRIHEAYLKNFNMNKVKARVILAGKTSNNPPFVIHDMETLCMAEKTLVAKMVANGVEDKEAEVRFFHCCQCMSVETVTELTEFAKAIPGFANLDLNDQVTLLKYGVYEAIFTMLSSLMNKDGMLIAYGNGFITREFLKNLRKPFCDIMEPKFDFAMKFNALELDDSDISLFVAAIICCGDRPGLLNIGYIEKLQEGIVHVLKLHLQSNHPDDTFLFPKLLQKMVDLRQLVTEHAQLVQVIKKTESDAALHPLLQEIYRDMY
Description: Binding affinity to mouse PPARalpha.
Settings: not given
Consider `COc1ccc(C(=O)c2c(C)n(Cc3cccc(O[C@H](C)C(=O)O)c3)c3ncccc23)cc1`, for which the outcome was Active.

Compound `COc1ccc(C(=O)c2c(C)n(Cc3ccc(F)c(O[C@@H](C)C(=O)O)c3)c3nc(OC)ccc23)cc1` returned an Activity of 222 nM.

Consider `COc1ccc(C(=O)c2c(C)n(Cc3cc(O[C@@H](C)C(=O)O)ccc3F)c3nc(C)ccc23)cc1`, for which the %max worked out at 28% and the Activity came out at 500 nM.

The test system of another data set is Mus musculus. Description: Antiglycemic activity in db/db mouse assessed as glucose correction at 50 mg/kg, po administered daily for 11 days. It is filed as functional.
Settings: not given
`Cc1c(Oc2ccc(Cl)cc2)c2ccc(C(F)(F)F)nc2n1Cc1ccc(Cl)c(O[C@@H](C)C(=O)O)c1`: the Activity is 56%.

Tested on in another data set: not listed separately
The data set can be described thus: Half life in Sprague-Dawley rat at 0.5 mg, iv and 2.0 mg, po. It is filed as ADME, organism-based. As to conditions: in vivo.
Consider `Cc1c(Oc2ccc(Cl)cc2)c2ccc(C(F)(F)F)nc2n1Cc1ccc(Cl)c(O[C@@H](C)C(=O)O)c1`, for which the half-life – broadly, the time in which the quantity being followed falls by half – is 1.9 h.

`COc1ccc(C(=O)c2c(C)n(Cc3cc(O[C@@H](C)C(=O)O)ccc3F)c3nc(C)ccc23)cc1` showed a half-life of 1.9 h.

Tested on in the next data set: not listed separately
Description: Bioavailability in Sprague-Dawley rat at 0.5 mg, iv and 2.0 mg, po. It is filed as ADME, organism-based. As to conditions: in vivo.
For `Cc1c(Oc2ccc(Cl)cc2)c2ccc(C(F)(F)F)nc2n1Cc1ccc(Cl)c(O[C@@H](C)C(=O)O)c1`, the bioavailability came out at 61%.

As to `COc1ccc(C(=O)c2c(C)n(Cc3cc(O[C@@H](C)C(=O)O)ccc3F)c3nc(C)ccc23)cc1`, the bioavailability stood at 105%.

Another data set concerns the target T2, Peroxisome proliferator-activated receptor gamma (Homo sapiens, UniProt P37231).
T2 sequence (P37231 whole entry): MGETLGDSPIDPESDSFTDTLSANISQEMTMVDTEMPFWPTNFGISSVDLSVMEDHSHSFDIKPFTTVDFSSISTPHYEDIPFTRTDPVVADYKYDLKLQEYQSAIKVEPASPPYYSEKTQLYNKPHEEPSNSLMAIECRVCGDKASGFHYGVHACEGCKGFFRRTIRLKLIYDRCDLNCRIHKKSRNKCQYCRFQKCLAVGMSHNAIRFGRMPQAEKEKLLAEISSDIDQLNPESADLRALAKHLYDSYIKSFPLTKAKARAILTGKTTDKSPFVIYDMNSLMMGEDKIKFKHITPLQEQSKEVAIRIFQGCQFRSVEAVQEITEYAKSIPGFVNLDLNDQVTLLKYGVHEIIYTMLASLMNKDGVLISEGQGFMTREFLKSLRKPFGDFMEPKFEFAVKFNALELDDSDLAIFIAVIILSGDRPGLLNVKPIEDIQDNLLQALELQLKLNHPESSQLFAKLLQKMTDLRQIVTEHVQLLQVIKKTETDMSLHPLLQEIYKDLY
The data set can be described thus: Agonist activity at human PPARgamma receptor expressed in african green monkey COS cells after 48 hrs by GAL4 transactivation assay.
Settings: not given
It is filed as functional, cell-based.
Consider `Cc1c(Oc2ccc(Cl)cc2)c2ccc(C(F)(F)F)nc2n1Cc1ccc(Cl)c(O[C@@H](C)C(=O)O)c1`, for which the pEC50 (as a rule, the EC50 on a negative log10 scale, so that one unit is a factor of ten) is 7.64.

Consider `COc1ccc(C(=O)c2c(C)n(Cc3cccc(O[C@H](C)C(=O)O)c3)c3ncccc23)cc1`, for which the pEC50 was 5.53.

With `COc1ccc(C(=O)c2c(C)n(Cc3ccc(F)c(O[C@@H](C)C(=O)O)c3)c3nc(OC)ccc23)cc1`, the pEC50 is 9.00.

Regarding `COc1ccc(C(=O)c2c(C)n(Cc3cc(O[C@@H](C)C(=O)O)ccc3F)c3nc(C)ccc23)cc1`, the pEC50 was 8.70.

For another data set, the target named is T2, Peroxisome proliferator-activated receptor gamma. Description: Displacement of [3H]2AD-5075 from GST-tagged human PPARgamma receptor expressed in Escherichia coli BL21.
Settings: not given
(In general: Displacement assays read how much labelled ligand stays bound in the presence of the test substance.)
As to `Cc1c(Oc2ccc(Cl)cc2)c2ccc(C(F)(F)F)nc2n1Cc1ccc(Cl)c(O[C@@H](C)C(=O)O)c1`, the pIC50 (commonly the IC50 on a negative log10 scale, so that one unit is a factor of ten) was 7.66.

For the compound `COc1ccc(C(=O)c2c(C)n(Cc3cccc(O[C@H](C)C(=O)O)c3)c3ncccc23)cc1`, the pIC50 was 6.14.

Regarding `COc1ccc(C(=O)c2c(C)n(Cc3ccc(F)c(O[C@@H](C)C(=O)O)c3)c3nc(OC)ccc23)cc1`, the pIC50 is 9.00.

`COc1ccc(C(=O)c2c(C)n(Cc3cc(O[C@@H](C)C(=O)O)ccc3F)c3nc(C)ccc23)cc1` gave a pIC50 of 8.40.

Tested on in another data set: not listed separately
Description: Clearance in Sprague-Dawley rat at 0.5 mg, iv and 2.0 mg, po. In kind it is ADME, organism-based. As to conditions: in vivo.
Compound `Cc1c(Oc2ccc(Cl)cc2)c2ccc(C(F)(F)F)nc2n1Cc1ccc(Cl)c(O[C@@H](C)C(=O)O)c1` yielded a clearance of 12.4 mL/min/kg.

The compound `COc1ccc(C(=O)c2c(C)n(Cc3cc(O[C@@H](C)C(=O)O)ccc3F)c3nc(C)ccc23)cc1` yielded a clearance of 32 mL/min/kg.

The target of another data set is T3, Peroxisome proliferator-activated receptor delta (Homo sapiens, UniProt Q03181).
T3 sequence (Q03181 whole entry): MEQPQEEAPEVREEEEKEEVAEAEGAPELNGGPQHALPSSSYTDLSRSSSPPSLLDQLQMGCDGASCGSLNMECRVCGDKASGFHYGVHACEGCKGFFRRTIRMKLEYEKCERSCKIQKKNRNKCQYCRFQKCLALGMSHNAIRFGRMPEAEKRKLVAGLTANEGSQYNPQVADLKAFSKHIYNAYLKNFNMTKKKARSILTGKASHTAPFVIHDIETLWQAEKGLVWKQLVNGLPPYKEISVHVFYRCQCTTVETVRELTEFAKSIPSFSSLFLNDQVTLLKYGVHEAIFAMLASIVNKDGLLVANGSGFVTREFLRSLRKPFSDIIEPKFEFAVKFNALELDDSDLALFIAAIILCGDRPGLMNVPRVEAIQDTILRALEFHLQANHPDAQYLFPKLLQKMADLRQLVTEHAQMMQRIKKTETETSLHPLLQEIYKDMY
The data set can be described thus: Binding affinity to PPARdelta.
Settings: not given
As to `Cc1c(Oc2ccc(Cl)cc2)c2ccc(C(F)(F)F)nc2n1Cc1ccc(Cl)c(O[C@@H](C)C(=O)O)c1`, the pIC50 was under 4.30.

`COc1ccc(C(=O)c2c(C)n(Cc3cccc(O[C@H](C)C(=O)O)c3)c3ncccc23)cc1` showed a pIC50 of under 4.30.

Another data set has as its target Peroxisome proliferator-activated receptor alpha (Homo sapiens) (UniProt Q07869). Description: (§1) Binding affinity to human PPARalpha.
Settings: not given
With `COc1ccc(C(=O)c2c(C)n(Cc3cccc(O[C@H](C)C(=O)O)c3)c3ncccc23)cc1`, the result was Active.

For `COc1ccc(C(=O)c2c(C)n(Cc3ccc(F)c(O[C@@H](C)C(=O)O)c3)c3nc(OC)ccc23)cc1`, the Activity was 489 nM.

A further data set has as its target T4, Peroxisome proliferator-activated receptor alpha (Homo sapiens, UniProt Q07869).
T4 sequence (Q07869 whole entry): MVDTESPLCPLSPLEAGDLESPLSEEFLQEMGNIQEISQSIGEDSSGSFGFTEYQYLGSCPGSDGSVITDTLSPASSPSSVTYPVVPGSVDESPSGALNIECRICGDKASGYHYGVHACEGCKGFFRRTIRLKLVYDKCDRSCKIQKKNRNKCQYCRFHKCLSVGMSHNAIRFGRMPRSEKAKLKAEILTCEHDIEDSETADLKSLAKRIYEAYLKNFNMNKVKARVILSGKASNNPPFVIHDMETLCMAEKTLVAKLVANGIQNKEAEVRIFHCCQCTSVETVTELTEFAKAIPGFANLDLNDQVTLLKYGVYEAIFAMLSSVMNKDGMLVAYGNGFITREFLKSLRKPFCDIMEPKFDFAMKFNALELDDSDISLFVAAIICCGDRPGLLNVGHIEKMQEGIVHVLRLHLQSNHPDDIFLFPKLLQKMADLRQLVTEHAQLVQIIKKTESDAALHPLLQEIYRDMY
Described as §1.
Settings: not given
For the compound `Cc1c(Oc2ccc(Cl)cc2)c2ccc(C(F)(F)F)nc2n1Cc1ccc(Cl)c(O[C@@H](C)C(=O)O)c1`, the pIC50 was under 4.30.

For the next data set, the system named is Mus musculus. Description: Antiglycemic activity in db/db mouse assessed as glucose correction at 20 mg/kg, po administered daily for 11 days. It is filed as functional.
Settings: not given
As for `Cc1c(Oc2ccc(Cl)cc2)c2ccc(C(F)(F)F)nc2n1Cc1ccc(Cl)c(O[C@@H](C)C(=O)O)c1`, the Activity is 18%.

The test system of the next data set is Mus musculus. Description: Antiglycemic activity in db/db mouse assessed as glucose correction at 10 mg/kg, po administered daily for 11 days. In kind it is functional.
Settings: not given
With `COc1ccc(C(=O)c2c(C)n(Cc3ccc(F)c(O[C@@H](C)C(=O)O)c3)c3nc(OC)ccc23)cc1`, the Activity is 23%.

Take `COc1ccc(C(=O)c2c(C)n(Cc3cc(O[C@@H](C)C(=O)O)ccc3F)c3nc(C)ccc23)cc1`: the Activity is given as 63%.
